Measured values from patent publication US20100093760A1, “METHODS FOR IDENTIFYING COMPOUNDS THAT MODULATE CELL SIGNALING AND METHODS EMPLOYING SUCH COMPOUNDS” (The General Hospital Corporation, priority 2006, published 2010).
“Also recorded” adds a separate entry of the source. Read-outs that look alike come from different tables or passages of the source.

Assays:
[1] = test system: BMP-mediated SMAD1/5/8 phosphorylation; experiment: Immunoblot of BMP-induced SMAD1/5/8 phosphorylation in PASMCs; assay type: cell-based, murine; conditions: for IC50: Mus musculus, PASMC
Procedure: Wild-type and BMPR-II-deficient PASMC were isolated as previously described (Yu et al., J. Biol. Chem. 280:24443-24450, 2005), and cultured in RPMI medium (Invitrogen) supplemented with 10% FBS. C2C12 cells (American Type Culture Collection, Manassas, Va.) were cultured in DMEM supplemented with glutamine and 10% FBS. HepG2 cells and Hep3B cells (ATCC) were cultured in Minimal Essential Alpha Medium with L-glutamine (α-MEM, Invitrogen) containing 10% FBS. For studies of SMAD activation in vitro, PASMC were incubated in 0.5% FCS RPMI for 24 hours, followed by preincubation with drug compounds, noggin, or vehicle for 30 minutes, followed the addition of recombinant BMPs 2, 4, 6, or 7, or TGF-β1 or Activin A (R&D Systems, Minneapolis, Minn.) for 30 minutes.
Cell extracts or tissues were mechanically homogenized in SDS-lysis buffer (62.5 mM Tris-HCl (pH 6.8), 2% SDS, 10% glycerol, 50 mM DTT, 0.01% bromophenol blue); separated by SDS-PAGE; immunoblotted with anti-phospho-SMAD1/5/8, anti-phospho-SMAD2 (Cell Signaling, Beverly, Mass.), or anti-α-tubulin (Upstate/Millipore, Billerica, Mass.) Abs; and visualized using ECL Plus (GE Healthcare, Piscataway, N.J.). Levels of immunoreactive proteins were quantitated by ImageQuant software on a Storm phosphorimager (GE Healthcare).
The statistical significance of compared measurements was measured using the student's two-tailed T-test or one-way ANOVA with Bonferroni correction. Hill plot analysis of Compound C/Dorsomorphin inhibition of SMAD1/5/8 phosphorylation was performed using GraFit software (Erithacus Software, Surrey, England).

chordin morphant embryos = experiment: Rescue of ventralization in chordin morphant zebrafish embryos; assay type: in vivo; conditions: 20 μM at 2 hpf, 36 hpf
From the text: Since treatment with Compound C/Dorsomorphin mimics BMP antagonism in zebrafish, it was postulated that Compound C/Dorsomorphin might rescue ventralization caused by loss of the endogenous BMP antagonist chordin ([…] et al., Development 123:143-151, 1996; Nasevicius et al., Nat. Genet. 26:216-220, 2000). […] Genet. 26:216-220, 2000; Leung et al., Dev. Biol. 277:235-254, 2005). […] Therefore, Compound C/Dorsomorphin treatment compensates for the loss of an endogenous BMP antagonist in zebrafish embryos, confirming its function as a BMP antagonist.

[2] = test system: BMP signaling pathway (activation of SMAD1/5/8 by BMP4); experiment: Cellular ELISA of BMP4-mediated SMAD1/5/8 activation; assay type: cell-based
Procedure: In one example, the cell-based assay of the invention is an enzyme linked immunosorbent assay (ELISA) in which activation of SMAD proteins (SMAD2 or SMAD1/5/8) is measured. […] As discussed above, SMAD proteins are phosphorylated by heteromeric complexes of type I and type II BMP or TGF-β serine-threonine kinase receptors when engaged by ligands. The principal effects of these ligands are generally attributable to gene transcription from the activation of specific SMADs. Phosphorylated SMADs can be detected in whole cell extracts using commercially available anti-phospho-protein antibodies with high specificity by Western blotting (Yu et al., J. Biol. Chem. 280:24443-24450, 2005).
In an improved method provided by the invention, phosphorylated SMADs are detected in whole cells with high sensitivity and specificity by immobilizing and rendering the phospho-SMAD antigens accessible to antibody. Traditional fixation with 1% to 8% paraformaldehyde solution followed by permeabilization with methanol, or a solution of dilute detergent such as Triton-X100, yields unacceptable results, with the signal being only 1.2 to 1.3 times the background, if it is detected at all (while Western blot these signal-to-noise ratios would be 10 to 20). […]

AMP kinase = conditions: Zhou et al. 2001; cited from earlier work

c1cc(-c2cnn3cc(-c4ccc(OCCN5CCCCC5)cc4)cnc23)ccn1 [Compound C/Dorsomorphin]
IC50 ([1]; FIG. 6, read-out: IC50, activation of SMADs 1, 5, and 8 by BMP4): 500 nM
IC50 ([1]; PASMCs, Hill plot, 0.1-50 μM, read-out: functional IC50, BMP4-stimulated SMAD1/5/8 phosphorylation): 470 nM
level of phosphorylated SMAD1/5/8 in cells not treated with BMP ([1]; PASMCs, 4 μM): below basal levels
effect on activation of SMAD1/5/8 by BMPs 2, 4, 6, and 7 ([1]; PASMCs, 4 μM, BMPs 10 ng/ml, 30 minutes): blocking; also recorded: inhibited
effect on BMP4-mediated SMAD1/5/8 phosphorylation ([1]; PASMCs, BMP4 20 ng/ml, 0.2-40 μM pretreatment 30 minutes): inhibited activation of SMADs 1/5/8 dose dependently; also recorded: dose-dependent inhibition
ventralization of chordin morphant embryos (chordin morphant embryos): prevented ventralization and ICM expansion; also recorded: little or no ventralization
Preference for BMP-mediated SMAD1/5/8 over TGF-β-mediated SMAD2 phosphorylation ([2]; FIG. 4): potently and preferentially inhibited; also recorded: preferentially inhibits
IC50 ([2]; FIG. 4, read-out: IC50, inhibition of activation of the BMP signaling pathway (SMAD1/5/8 by BMP4)): < 200 nM
IC50 (AMP kinase): 15000 to 30000 nM
